Measured values from patent US20240066131A1 (Protagonist Therapeutics, Inc., priority 2020, published 2024).
Where two headings read alike, the source gives them in different places. Starred links: 1 amine or outer side, 2 acyl side, 3 side chain; linkers in the order of their positions; H or OH if unused. Non-standard residues stand in square brackets, D forms with d. Residues, ends and D or L forms follow the SMILES beside them. Groups on a side chain read outwards from the residue. *: point of attachment. Ala(1H-tetrazol-5-yl) = N[C@@H](Cc1nnn[nH]1)C(=O)O; X15 = O=C([C@H](CCc1nnn[nH]1)N[*:1])[*:2]; X8 = O=C([C@H](CCc1nn[nH]n1)N[*:1])[*:2]; Dip = N[C@H](C(=O)O)C(c1ccccc1)c1ccccc1; His(τ-Me) = Cn1cnc(C[C@H](N)C(=O)O)c1; Gly(NCH2CH2Ph) = O=C(O)CNCCc1ccccc1; Palmitoyl = CCCCCCCCCCCCCCCC(=O)*; β3hF = N[C@H](CC(=O)O)Cc1ccccc1; NMeK = CN[C@@H](CCCCN)C(=O)O; PEG4 = NCCOCCOCCOCCOCCC(=O)O; Decanoyl = CCCCCCCCCC(=O)*; Isovaleryl = CC(C)CC(=O)*; Octanoyl = CCCCCCCC(=O)*; AEEA = NCCOCCOCC(=O)O; NHBn = c1ccc(CN*)cc1; Ahx = NCCCCCC(=O)O

Target: T1, ferroportin (Homo sapiens, UniProt Q9NP59)
T1 sequence (Q9NP59 1-571): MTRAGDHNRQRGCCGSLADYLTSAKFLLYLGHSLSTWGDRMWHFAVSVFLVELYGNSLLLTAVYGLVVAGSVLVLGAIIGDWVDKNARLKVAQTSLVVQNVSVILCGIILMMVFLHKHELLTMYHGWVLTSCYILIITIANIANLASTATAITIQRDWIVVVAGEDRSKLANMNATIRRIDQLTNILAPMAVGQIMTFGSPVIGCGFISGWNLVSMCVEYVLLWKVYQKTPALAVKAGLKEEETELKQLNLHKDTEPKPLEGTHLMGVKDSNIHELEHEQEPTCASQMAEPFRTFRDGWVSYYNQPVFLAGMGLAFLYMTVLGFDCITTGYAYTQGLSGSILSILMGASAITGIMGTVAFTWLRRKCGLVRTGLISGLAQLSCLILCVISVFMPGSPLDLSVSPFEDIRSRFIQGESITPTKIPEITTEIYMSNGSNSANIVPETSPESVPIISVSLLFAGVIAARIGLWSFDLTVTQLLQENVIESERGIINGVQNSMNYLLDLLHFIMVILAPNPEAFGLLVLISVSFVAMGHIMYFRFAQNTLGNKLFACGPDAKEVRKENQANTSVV
Experiment: FPN activity assay: internalization/degradation of ferroportin-GFP in stably transfected HEK293 cells (loss of GFP fluorescence)
Assay type: cell-based
Method: Following internalization, the ferroporin protein is degraded.
A retro inverse peptide is a peptide with a reversed sequence in all D amino acids. An example is that Hy-Glu-Thr-His-NH2 becomes Hy-DHis-DThr-DGlu-NH2. The EC50 of these reference compounds for ferroportin internalization/degradation was determined according to the FPN activity assay described above. These peptides served as control standards.

[1] = ferroportin-GFP HEK293 cells, compound incubated at least 18 hours, read-out: FPN IC50

Row | SMILES | DC50 (Table 6A, read-out: FPN EC50) | DC50 [1]
1 | CC[C@H](C)[C@H](NC(=O)[C@H](C)NC(=O)[C@@H]1CCCN1C(=O)[C@@H](NC(=O)[C@H](Cc1cn(C)cn1)NC(=O)[C@@H](NC(=O)[C@H](CCc1nn[nH]n1)NC(=O)CC(C)C)[C@@H](C)O)C(c1ccccc1)c1ccccc1)C(=O)N[C@@H](CCCCNC(C)=O)C(=O)N[C@H](CC(=O)N[C@H](CCCCN)C(N)=O)Cc1ccccc1 [compound 41] (Isovaleryl-[X8]T[His(τ-Me)][Dip]PAIK(Ac)[β3hF][dK]-NH2) | > 3000 nM | 
2 | CCCCCCCCCCCCCCCC(=O)NCCCCCC(=O)NCCCC[C@H](NC(=O)CC(C)C)C(=O)N[C@H](C(=O)N[C@@H](Cc1c[nH]cn1)C(=O)N[C@H](C(=O)N1CCC[C@H]1C(=O)N[C@@H](C)C(=O)N[C@H](C(=O)N[C@H](CCCCN)C(=O)N[C@H](CC(N)=O)Cc1ccccc1)[C@@H](C)CC)C(c1ccccc1)c1ccccc1)[C@@H](C)O [compound 203] (Isovaleryl-K([Ahx-Palmitoyl])TH[Dip]PAI[dK][β3hF]-NH2) |  | 654 nM
3 | CC(C)CC(=O)N[C@@H](CCC(=O)O)C(=O)N[C@H](C(=O)N[C@@H](Cc1c[nH]cn1)C(=O)N[C@H](C(=O)N1CCC[C@H]1C(=O)N[C@H](CCCCNC(=O)COCCOCCNC(=O)COCCOCCNC(=O)CCCCCNC(=O)CCCCCCCCCCCCCCCCC(=O)O)C(=O)N[C@H](CC(N)=O)Cc1ccccc1)C(c1ccccc1)c1ccccc1)[C@@H](C)O [compound 214] |  | 86.8 nM
4 | CCCCCCCCCC(=O)NCCCCCC(=O)NCCCC[C@H](NC(=O)[C@@H](NC(=O)[C@H](C)NC(=O)[C@@H]1CCCN1C(=O)[C@H](Cc1ccccc1)NC(=O)[C@H](Cc1c[nH]cn1)NC(=O)[C@@H](NC(=O)[C@H](CCC(=O)O)NC(=O)CC(C)C)[C@@H](C)O)[C@@H](C)CC)C(=O)N[C@@H](Cc1ccccc1)C(=O)N[C@@H](CCC(=O)O)C(=O)N1CCC[C@H]1C(=O)N[C@@H](CCCNC(=N)N)C(=O)N[C@@H](CO)C(=O)N[C@@H](CCCCN)C(=O)NCC(=O)N[C@@H](C)C(=O)N[C@@H](CCCCN)C(N)=O [compound 244] (Isovaleryl-ETHFPAIK([Ahx-Decanoyl])FEPRSKGAK-NH2) |  | > 3000 nM
5 | CC[C@H](C)[C@H](NC(=O)[C@H](C)NC(=O)[C@@H]1CCCN1C(=O)[C@@H](NC(=O)[C@H](Cc1c[nH]cn1)NC(=O)[C@@H](NC(=O)[C@H](CCC(=O)O)NC(=O)CC(C)C)[C@@H](C)O)C(c1ccccc1)c1ccccc1)C(=O)N[C@@H](CCCCNC(C)=O)C(N)=O [compound 12] (Isovaleryl-ETH[Dip]PAIK(Ac)-NH2) | 1040 nM | 
6 | CCCCCCCC(=O)NCCCCCC(=O)NCCCC[C@H](NC(=O)[C@@H](NC(=O)[C@H](C)NC(=O)[C@@H]1CCCN1C(=O)[C@@H](NC(=O)[C@H](Cc1c[nH]cn1)NC(=O)[C@@H](NC(=O)[C@H](CCC(=O)O)NC(=O)CC(C)C)[C@@H](C)O)C(c1ccccc1)c1ccccc1)[C@@H](C)CC)C(=O)N[C@H](CC(N)=O)Cc1ccccc1 [compound 103] (Isovaleryl-ETH[Dip]PAIK([Ahx-Octanoyl])[β3hF]-NH2) | 162 nM | 
7 | CC[C@H](C)[C@H](NC(=O)[C@H](C)NC(=O)[C@@H]1CCCN1C(=O)[C@@H](NC(=O)[C@H](Cc1cn(C)cn1)NC(=O)[C@@H](NC(=O)[C@H](Cc1nn[nH]n1)NC(=O)CC(C)C)[C@@H](C)O)C(c1ccccc1)c1ccccc1)C(=O)N[C@@H](CCCCNC(C)=O)C(=O)N[C@H](CC(=O)N[C@H](CCCCN)C(=O)N[C@@H](C)C(N)=O)Cc1ccccc1 [compound 39] (Isovaleryl-[Ala(1H-tetrazol-5-yl)]T[His(τ-Me)][Dip]PAIK(Ac)[β3hF][dK]A-NH2) | > 3000 nM | 
8 | CCCCCCCCCCCCCCCC(=O)NCCCCCC(=O)NCCCC[C@H](NC(=O)[C@@H](NC(=O)[C@H](C)NC(=O)[C@@H]1CCCN1C(=O)[C@@H](NC(=O)[C@H](Cc1c[nH]cn1)NC(=O)[C@@H](NC(=O)[C@H](CCC(=O)O)NC(=O)CC(C)C)[C@@H](C)O)C(c1ccccc1)c1ccccc1)[C@@H](C)CC)C(=O)NCc1ccccc1 [compound 52] (Isovaleryl-ETH[Dip]PAIK([Ahx-Palmitoyl])-NHBn) | 162 nM | 
9 | CC[C@H](C)[C@H](NC(=O)[C@H](C)NC(=O)[C@@H]1CCCN1C(=O)[C@@H](NC(=O)[C@H](Cc1cn(C)cn1)NC(=O)[C@@H](NC(=O)[C@H](CCC(=O)O)NC(=O)CC(C)C)[C@@H](C)O)C(c1ccccc1)c1ccccc1)C(=O)N[C@@H](CCCCNC(C)=O)C(=O)N[C@H](CC(=O)N[C@H](CCCCN)C(=O)N[C@@H](C)C(N)=O)Cc1ccccc1 [compound 36] (Isovaleryl-ET[His(τ-Me)][Dip]PAIK(Ac)[β3hF][dK]A-NH2) | > 3000 nM | 

Continued by falling DC50 (Table 6A, read-out: FPN EC50), values first:

Row | DC50 (Table 6A, read-out: FPN EC50) | DC50 [1] | SMILES
10 | 117 nM |  | CC[C@H](C)[C@H](NC(=O)[C@H](C)NC(=O)[C@@H]1CCCN1C(=O)[C@@H](NC(=O)[C@H](Cc1c[nH]cn1)NC(=O)[C@@H](NC(=O)[C@H](CCc1nnn[nH]1)NC(=O)CC(C)C)[C@@H](C)O)C(c1ccccc1)c1ccccc1)C(=O)N[C@@H](CCCCNC(C)=O)C(=O)N[C@H](CC(=O)N[C@H](CCCCN)C(=O)N[C@@H](C)C(N)=O)Cc1ccccc1 [compound 38] (Isovaleryl-[X15]TH[Dip]PAIK(Ac)[β3hF][dK]A-NH2)
11 | 103 nM |  | CCCCCCCCCCCCCCCC(=O)NCCCCCC(=O)NCCCC[C@H](NC(=O)C[C@H](Cc1ccccc1)NC(=O)[C@H](CCCCN)N(C)C(=O)[C@@H](NC(=O)[C@H](C)NC(=O)[C@@H]1CCCN1C(=O)[C@@H](NC(=O)[C@H](Cc1c[nH]cn1)NC(=O)[C@@H](NC(=O)[C@H](CC(C)C)NC(=O)CC(C)C)[C@@H](C)O)C(c1ccccc1)c1ccccc1)[C@@H](C)CC)C(N)=O [compound 46] (Isovaleryl-LTH[Dip]PAI[NMeK][β3hF]K([Ahx-Palmitoyl])-NH2)
12 | 101 nM |  | CCCCCCCCCCCCCCCC(=O)NCCCCCC(=O)NCCCC[C@H](NC(=O)[C@@H](NC(=O)[C@@H](NC(=O)[C@@H]1CCCN1C(=O)[C@@H](NC(=O)[C@H](Cc1cn(C)cn1)NC(=O)[C@@H](NC(=O)[C@H](CCc1nn[nH]n1)NC(=O)CC(C)C)[C@@H](C)O)C(c1ccccc1)c1ccccc1)[C@@H](C)CC)[C@@H](C)CC)C(=O)N[C@H](CC(N)=O)Cc1ccccc1 [compound 117] (Isovaleryl-[X8]T[His(τ-Me)][Dip]PIIK([Ahx-Palmitoyl])[β3hF]-NH2)
13 | 63.5 nM |  | CCCCCCCCCCCCCCCC(=O)NCCCCCC(=O)NCCOCCOCC(=O)NCCOCCOCC(=O)NCCCC[C@H](NC(=O)[C@@H](NC(=O)[C@H](C)NC(=O)[C@@H]1CCCN1C(=O)[C@@H](NC(=O)[C@H](Cc1c[nH]cn1)NC(=O)[C@@H](NC(=O)[C@H](CCC(=O)O)NC(=O)CC(C)C)[C@@H](C)O)C(c1ccccc1)c1ccccc1)[C@@H](C)CC)C(=O)N[C@H](CC(N)=O)Cc1ccccc1 [compound 101] (Isovaleryl-ETH[Dip]PAIK([AEEA-AEEA-Ahx-Palmitoyl])[β3hF]-NH2)
14 | 32.7 nM |  | CCCCCCCCCCCCCCCC(=O)NCCOCCOCCOCCOCCC(=O)NCCCC[C@H](NC(=O)[C@@H](NC(=O)[C@H](C)NC(=O)[C@@H]1CCCN1C(=O)[C@@H](NC(=O)[C@H](Cc1c[nH]cn1)NC(=O)[C@@H](NC(=O)[C@H](CCC(=O)O)NC(=O)CC(C)C)[C@@H](C)O)C(c1ccccc1)c1ccccc1)[C@@H](C)CC)C(=O)N[C@H](CC(N)=O)Cc1ccccc1 [compound 95] (Isovaleryl-ETH[Dip]PAIK([PEG4-Palmitoyl])[β3hF]-NH2)
15 | 31.9 nM |  | CCCCCCCCCCCCCCCC(=O)NCCCCCC(=O)NCCCC[C@H](NC(=O)[C@@H](NC(=O)[C@H](C)NC(=O)[C@@H]1CCCN1C(=O)[C@@H](NC(=O)[C@H](Cc1c[nH]cn1)NC(=O)[C@@H](NC(=O)[C@H](CCC(=O)O)NC(=O)CC(C)C)[C@@H](C)O)C(c1ccccc1)c1ccccc1)[C@@H](C)CC)C(=O)N[C@H](CC(N)=O)Cc1ccccc1 [SEQ ID No. 9, Isovaleric Acid-E-T-H-[Dpa]-P-A-I-[Lys(Ahx_Palm)]-[bhPhe]-NH2] (Isovaleryl-ETH[Dip]PAIK([Ahx-Palmitoyl])[β3hF]-NH2)
16 | 31.9 nM |  | CCCCCCCCCCCCCCCC(=O)NCCCCCC(=O)NCCCC[C@H](NC(=O)[C@@H](NC(=O)[C@H](C)NC(=O)[C@@H]1CCCN1C(=O)[C@@H](NC(=O)[C@H](Cc1c[nH]cn1)NC(=O)[C@@H](NC(=O)[C@H](CCC(=O)O)NC(=O)CC(C)C)[C@@H](C)O)C(c1ccccc1)c1ccccc1)[C@@H](C)CC)C(=O)N(CCc1ccccc1)CC(N)=O [compound 93] (Isovaleryl-ETH[Dip]PAIK([Ahx-Palmitoyl])[Gly(NCH2CH2Ph)]-NH2)
17 | 24.9 nM |  | CCCCCCCCCCCCCCCC(=O)NCCCCCC(=O)NCCCC[C@H](NC(=O)C[C@H](Cc1ccccc1)NC(=O)[C@@H](CCCCN)NC(=O)[C@@H](NC(=O)[C@H](C)NC(=O)[C@@H]1CCCN1C(=O)[C@@H](NC(=O)[C@H](Cc1c[nH]cn1)NC(=O)[C@@H](NC(=O)[C@H](CCC(=O)O)NC(=O)CC(C)C)[C@@H](C)O)C(c1ccccc1)c1ccccc1)[C@@H](C)CC)C(N)=O [compound 3] (Isovaleryl-ETH[Dip]PAI[dK][β3hF]K([Ahx-Palmitoyl])-NH2)
